pEC50, pIC50, pKi: −log10 of the molar value.

Sequence of Glutamate receptor 3 (P19492 whole entry): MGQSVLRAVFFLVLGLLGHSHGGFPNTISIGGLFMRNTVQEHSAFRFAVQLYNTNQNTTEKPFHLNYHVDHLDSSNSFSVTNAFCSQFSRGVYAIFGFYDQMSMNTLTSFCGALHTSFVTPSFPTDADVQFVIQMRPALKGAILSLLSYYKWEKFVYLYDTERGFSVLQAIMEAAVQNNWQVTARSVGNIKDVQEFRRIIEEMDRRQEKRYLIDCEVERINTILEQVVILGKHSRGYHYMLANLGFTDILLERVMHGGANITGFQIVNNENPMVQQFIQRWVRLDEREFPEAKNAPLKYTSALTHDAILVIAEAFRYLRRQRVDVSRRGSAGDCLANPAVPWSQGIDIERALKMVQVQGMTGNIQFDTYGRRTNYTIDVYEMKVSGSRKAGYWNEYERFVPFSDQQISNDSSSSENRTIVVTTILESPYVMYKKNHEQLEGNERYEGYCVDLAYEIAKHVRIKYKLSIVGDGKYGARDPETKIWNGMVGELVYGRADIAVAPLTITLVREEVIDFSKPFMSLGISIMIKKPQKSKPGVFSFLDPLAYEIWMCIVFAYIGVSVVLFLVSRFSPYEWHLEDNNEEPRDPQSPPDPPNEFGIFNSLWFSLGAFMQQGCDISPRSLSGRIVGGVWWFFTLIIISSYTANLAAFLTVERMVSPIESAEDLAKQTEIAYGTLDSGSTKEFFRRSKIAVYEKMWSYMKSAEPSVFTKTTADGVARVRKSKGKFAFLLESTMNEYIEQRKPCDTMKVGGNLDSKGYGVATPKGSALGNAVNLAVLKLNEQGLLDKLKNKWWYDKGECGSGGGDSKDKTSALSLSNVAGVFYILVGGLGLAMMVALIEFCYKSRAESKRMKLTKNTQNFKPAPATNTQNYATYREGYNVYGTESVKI

For one test, the target named is Glutamate NMDA receptor.
Assay: not given
In turn, `NC(Cc1cc(Cl)c(Cl)c(-c2ccc3c(c2)OCCO3)c1)C(=O)O` (racemic) showed a pKi of less than 4.30.

The molecule `N[C@H](Cc1cc(Cl)c(Cl)c(-c2cncc(O)c2)c1)C(=O)O` gave a pKi of less than 4.30.

As for `NC(Cc1cc(Cl)c(Cl)c(-c2cc(O)cc(O)c2)c1)C(=O)O` (racemic), the negative logarithm of the Ki (pKi) was less than 4.30.

In the case of `NC(Cc1cc(Cl)c(Cl)c(-c2cccc(CO)c2)c1)C(=O)O` (racemic), the pKi was less than 4.30.

Molecule `NC(Cc1cc(Cl)c(Cl)c(-c2ccc(O)nc2)c1)C(=O)O` (racemic) showed a negative-log Ki (pKi) of less than 4.30.

For `NC(Cc1cc(Cl)c(Cl)c(-c2ccc(O)c(O)c2)c1)C(=O)O` (stereo not given), the pKi was less than 4.30.

In the case of `COc1cccc(-c2cc(CC(N)C(=O)O)cc(Cl)c2Cl)c1` (racemic), the negative logarithm of the Ki (pKi) was less than 4.30.

Molecule `NC(Cc1cc(Cl)c(Cl)c(-c2ccc(CO)cc2)c1)C(=O)O` (racemic) gave a pKi of less than 4.30.

In turn, `NC(Cc1cc(Cl)c(Cl)c(-c2ccc(S(N)(=O)=O)cc2)c1)C(=O)O` (racemic) showed a negative-log Ki (pKi) of less than 4.30.

The molecule `N[C@@H](Cc1cc(Cl)c(Cl)c(-c2cncc(O)c2)c1)C(=O)O` showed a pKi of less than 4.30.

As to `NC(Cc1cc(Cl)c(Cl)c(-c2cncc(O)c2)c1)C(=O)O` (racemic), the pKi is less than 4.30.

For the molecule `Nc1cccc(-c2cc(CC(N)C(=O)O)cc(Cl)c2Cl)c1` (racemic), the negative logarithm of the Ki (pKi) was less than 4.30.

`NC(Cc1cc(Cl)c(Cl)c(-c2cccc(S(N)(=O)=O)c2)c1)C(=O)O` (racemic) had a pKi of less than 4.30.

A further test deals with Glutamate receptor 1 (Rattus norvegicus, UniProt P19490). Nature of the test: biochemical.
Sequence of Glutamate receptor 1 (P19490 whole entry): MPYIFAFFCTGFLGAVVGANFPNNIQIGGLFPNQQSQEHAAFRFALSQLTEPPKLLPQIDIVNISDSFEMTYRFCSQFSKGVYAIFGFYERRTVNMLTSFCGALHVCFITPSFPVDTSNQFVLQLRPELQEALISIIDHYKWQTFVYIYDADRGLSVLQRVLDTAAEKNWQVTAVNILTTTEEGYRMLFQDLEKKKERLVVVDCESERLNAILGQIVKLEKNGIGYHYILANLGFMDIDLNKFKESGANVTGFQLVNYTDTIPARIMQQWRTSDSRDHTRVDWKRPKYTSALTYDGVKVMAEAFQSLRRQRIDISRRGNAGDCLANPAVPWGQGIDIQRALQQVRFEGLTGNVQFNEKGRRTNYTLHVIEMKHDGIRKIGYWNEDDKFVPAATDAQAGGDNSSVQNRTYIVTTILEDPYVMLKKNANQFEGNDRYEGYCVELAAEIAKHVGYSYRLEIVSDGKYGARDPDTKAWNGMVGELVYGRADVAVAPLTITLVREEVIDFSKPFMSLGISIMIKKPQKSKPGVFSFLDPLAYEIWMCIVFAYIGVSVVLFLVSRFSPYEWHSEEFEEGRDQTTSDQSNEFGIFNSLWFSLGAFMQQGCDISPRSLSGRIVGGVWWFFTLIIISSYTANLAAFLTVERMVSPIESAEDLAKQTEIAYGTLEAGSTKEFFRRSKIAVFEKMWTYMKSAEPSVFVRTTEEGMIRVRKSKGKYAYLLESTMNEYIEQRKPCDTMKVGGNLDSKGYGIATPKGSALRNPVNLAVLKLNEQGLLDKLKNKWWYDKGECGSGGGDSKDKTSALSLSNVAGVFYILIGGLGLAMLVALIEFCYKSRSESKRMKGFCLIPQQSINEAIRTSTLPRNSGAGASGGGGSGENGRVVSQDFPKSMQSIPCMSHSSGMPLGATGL
Description: Displacement of [3H]AMPA from rat cloned GluA1o receptor expressed in sf9 cells incubated for 1 to 2 hrs by liquid scintillation counting method
`N[C@H](Cc1cc(Cl)c(Cl)c(-c2cncc(O)c2)c1)C(=O)O` had a pKi of less than 4.00.

For the molecule `N[C@@H](Cc1cc(Cl)c(Cl)c(-c2cncc(O)c2)c1)C(=O)O`, the pKi is 5.18.

In turn, `NC(Cc1cc(Cl)c(Cl)c(-c2cccc(O)c2)c1)C(=O)O` (racemic) had a pKi of 4.77.

For another test, the target named is T1, Glutamate receptor 2 (Homo sapiens, UniProt P42262). Description: Displacement of [3H]AMPA from GluA2 LBD (unknown origin) incubated for 2 hrs by liquid scintillation counting method.
T1 sequence (P42262 whole entry, the tested form may be a part): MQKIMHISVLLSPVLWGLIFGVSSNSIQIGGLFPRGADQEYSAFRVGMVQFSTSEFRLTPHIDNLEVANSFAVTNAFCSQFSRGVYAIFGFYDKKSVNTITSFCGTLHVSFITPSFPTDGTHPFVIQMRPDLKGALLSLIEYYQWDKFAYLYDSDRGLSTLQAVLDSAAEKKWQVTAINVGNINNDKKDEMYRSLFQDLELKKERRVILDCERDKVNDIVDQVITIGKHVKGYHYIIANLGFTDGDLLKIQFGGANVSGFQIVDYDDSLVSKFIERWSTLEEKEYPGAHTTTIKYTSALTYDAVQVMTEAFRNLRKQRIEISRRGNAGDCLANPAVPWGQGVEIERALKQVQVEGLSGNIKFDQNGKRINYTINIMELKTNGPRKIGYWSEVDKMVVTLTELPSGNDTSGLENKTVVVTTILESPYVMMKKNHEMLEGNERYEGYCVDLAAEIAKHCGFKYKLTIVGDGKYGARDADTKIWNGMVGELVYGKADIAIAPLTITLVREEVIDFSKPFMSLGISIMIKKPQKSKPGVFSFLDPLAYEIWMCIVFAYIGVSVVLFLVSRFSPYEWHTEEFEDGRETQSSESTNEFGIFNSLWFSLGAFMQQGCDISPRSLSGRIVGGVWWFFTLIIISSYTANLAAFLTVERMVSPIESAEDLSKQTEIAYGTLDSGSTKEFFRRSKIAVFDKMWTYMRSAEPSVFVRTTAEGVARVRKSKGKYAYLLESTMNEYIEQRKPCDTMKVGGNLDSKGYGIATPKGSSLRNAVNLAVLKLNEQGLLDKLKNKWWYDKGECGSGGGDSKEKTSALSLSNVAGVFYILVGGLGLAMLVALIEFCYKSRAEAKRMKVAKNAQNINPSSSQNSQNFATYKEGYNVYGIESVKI
Molecule `N[C@@H](Cc1cc(Cl)c(Cl)c(-c2cncc(O)c2)c1)C(=O)O` gave a negative logarithm of the Ki (pKi) of 5.65.

For another test, the target named is T1, Glutamate receptor 2. Description: Agonist activity at human GluA2(Q)i expressed in HEK293 cells assessed as enhancement of glutamate-evoked desensitized current by whole cell patch clamp method. In kind it is cell-based.
Consider `NS(=O)(=O)c1cc2c(cc1Cl)NC(C1CC3C=CC1C3)NS2(=O)=O` (stereo not given) [CYCLOTHIAZIDE], for which the pEC50 was 5.12.

In the next test the target is T2, Glutamate receptor 2 (Rattus norvegicus, UniProt P19491). Nature of the test: Displacement of [3H]AMPA from full length rat cloned GluA2(R)o receptor expressed in sf9 cells incubated for 1 to 2 hrs by liquid scintillation counting method.
T2 sequence (P19491 whole entry): as the sequence (P42262 whole entry, the tested form may be a part) above, with M191T, T291A, R764G, A852P counted along it
Molecule `N[C@H](Cc1cc(Cl)c(Cl)c(-c2cncc(O)c2)c1)C(=O)O` showed a negative-log Ki (pKi) of less than 4.00.

In the case of `N[C@@H](Cc1cc(Cl)c(Cl)c(-c2cncc(O)c2)c1)C(=O)O`, the pKi is 5.76.

Molecule `NC(Cc1cc(Cl)c(Cl)c(-c2cccc(O)c2)c1)C(=O)O` (racemic) had a negative logarithm of the Ki (pKi) of 5.30.

In a further test the target is Glutamate receptor ionotropic, kainate 2 (Rattus norvegicus, UniProt P42260). Nature of the test: biochemical.
Sequence of Glutamate receptor ionotropic, kainate 2 (P42260 whole entry): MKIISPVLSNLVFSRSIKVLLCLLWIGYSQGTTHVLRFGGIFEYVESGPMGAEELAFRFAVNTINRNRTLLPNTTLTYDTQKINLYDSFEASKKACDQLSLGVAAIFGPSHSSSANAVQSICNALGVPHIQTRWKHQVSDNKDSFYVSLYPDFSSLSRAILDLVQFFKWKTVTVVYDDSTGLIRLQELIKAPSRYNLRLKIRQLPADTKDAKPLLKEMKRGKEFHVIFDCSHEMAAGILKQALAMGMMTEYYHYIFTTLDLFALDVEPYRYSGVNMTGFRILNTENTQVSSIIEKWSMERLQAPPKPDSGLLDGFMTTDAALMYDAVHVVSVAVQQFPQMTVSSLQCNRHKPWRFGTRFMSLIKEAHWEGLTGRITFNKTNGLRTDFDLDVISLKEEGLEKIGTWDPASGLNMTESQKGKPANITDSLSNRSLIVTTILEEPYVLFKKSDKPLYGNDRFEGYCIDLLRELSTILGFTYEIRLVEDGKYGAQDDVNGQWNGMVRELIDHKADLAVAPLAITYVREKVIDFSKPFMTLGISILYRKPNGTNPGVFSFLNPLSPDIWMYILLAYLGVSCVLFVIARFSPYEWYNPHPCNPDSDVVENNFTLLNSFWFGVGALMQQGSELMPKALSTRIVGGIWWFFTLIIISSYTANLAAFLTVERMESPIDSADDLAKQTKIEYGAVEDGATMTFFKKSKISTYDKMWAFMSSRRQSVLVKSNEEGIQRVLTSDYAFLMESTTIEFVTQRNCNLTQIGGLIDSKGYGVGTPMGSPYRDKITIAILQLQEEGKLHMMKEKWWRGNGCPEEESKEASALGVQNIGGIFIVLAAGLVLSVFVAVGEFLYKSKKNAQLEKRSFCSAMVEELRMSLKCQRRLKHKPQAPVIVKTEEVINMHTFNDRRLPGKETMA
Description: Displacement of [3H]SYM2081 from cloned rat GluK2(V,C,R)A receptor expressed in sf9 cells incubated for 1 to 2 hrs by liquid scintillation counting method
In the case of `N[C@H](Cc1cc(Cl)c(Cl)c(-c2cncc(O)c2)c1)C(=O)O`, the pKi was less than 4.00.

On to `N[C@@H](Cc1cc(Cl)c(Cl)c(-c2cncc(O)c2)c1)C(=O)O`, for which the pKi is less than 4.00.

`NC(Cc1cc(Cl)c(Cl)c(-c2cccc(O)c2)c1)C(=O)O` (racemic) showed a negative-log Ki (pKi) of 4.11.

A further test deals with Glutamate receptor ionotropic, kainate 3 (Rattus norvegicus, UniProt P42264). Description: biochemical.
Sequence of Glutamate receptor ionotropic, kainate 3 (P42264 whole entry): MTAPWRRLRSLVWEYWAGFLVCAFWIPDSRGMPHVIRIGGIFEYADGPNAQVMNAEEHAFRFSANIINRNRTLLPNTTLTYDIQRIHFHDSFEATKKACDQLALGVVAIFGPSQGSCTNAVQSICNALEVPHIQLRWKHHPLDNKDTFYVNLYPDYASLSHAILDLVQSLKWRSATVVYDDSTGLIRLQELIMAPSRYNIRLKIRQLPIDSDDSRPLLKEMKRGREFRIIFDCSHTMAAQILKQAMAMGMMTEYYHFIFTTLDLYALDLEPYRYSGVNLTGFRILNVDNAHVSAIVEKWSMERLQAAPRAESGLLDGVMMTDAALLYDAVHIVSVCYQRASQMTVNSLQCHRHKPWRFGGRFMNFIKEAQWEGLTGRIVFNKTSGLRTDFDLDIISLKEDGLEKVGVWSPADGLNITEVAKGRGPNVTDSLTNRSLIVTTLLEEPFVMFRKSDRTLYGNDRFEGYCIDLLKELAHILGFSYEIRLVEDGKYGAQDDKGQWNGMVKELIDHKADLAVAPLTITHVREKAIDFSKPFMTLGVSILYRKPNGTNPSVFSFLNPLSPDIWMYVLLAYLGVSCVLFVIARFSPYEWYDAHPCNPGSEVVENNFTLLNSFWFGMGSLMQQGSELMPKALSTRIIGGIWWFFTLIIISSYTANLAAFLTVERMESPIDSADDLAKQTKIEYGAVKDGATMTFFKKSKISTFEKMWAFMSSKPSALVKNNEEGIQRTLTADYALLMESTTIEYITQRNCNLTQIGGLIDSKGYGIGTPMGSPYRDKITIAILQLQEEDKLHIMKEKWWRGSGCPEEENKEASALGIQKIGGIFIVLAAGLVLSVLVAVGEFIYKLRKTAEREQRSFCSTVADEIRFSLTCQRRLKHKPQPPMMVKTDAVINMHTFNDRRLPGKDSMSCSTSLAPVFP
Description: Displacement of [3H]SYM2081 from cloned rat GluK3A receptor expressed in sf9 cells incubated for 1 to 2 hrs by liquid scintillation counting method
Regarding `N[C@H](Cc1cc(Cl)c(Cl)c(-c2cncc(O)c2)c1)C(=O)O`, the pKi is less than 4.00.

`N[C@@H](Cc1cc(Cl)c(Cl)c(-c2cncc(O)c2)c1)C(=O)O`: the pKi is less than 4.00.

In turn, `NC(Cc1cc(Cl)c(Cl)c(-c2cccc(O)c2)c1)C(=O)O` (racemic) showed a pKi of 4.28.

Another test addresses Glutamate receptor 3 (Rattus norvegicus, UniProt P19492). Nature of the test: biochemical.
Description: Displacement of [3H]AMPA from rat cloned GluA3o receptor expressed in sf9 cells incubated for 1 to 2 hrs by liquid scintillation counting method
As to `N[C@H](Cc1cc(Cl)c(Cl)c(-c2cncc(O)c2)c1)C(=O)O`, the pKi was less than 4.00.

The molecule `N[C@@H](Cc1cc(Cl)c(Cl)c(-c2cncc(O)c2)c1)C(=O)O` had a pKi of 5.16.

In turn, `NC(Cc1cc(Cl)c(Cl)c(-c2cccc(O)c2)c1)C(=O)O` (racemic) gave a negative logarithm of the Ki (pKi) of 4.26.

In a further test the target is T2, Glutamate receptor 2. Description: Antagonist activity against recombinant rat GluA2(Q)i expressed in xenopus oocytes assessed as inhibition of L-glutamate-induced […] by two electrode voltage clamp method. The format is cell-based.
As to `N[C@@H](Cc1cc(Cl)c(Cl)c(-c2cncc(O)c2)c1)C(=O)O`, the pIC50 is 5.43.

A further test has as its target Glutamate receptor ionotropic, kainate 1 (Rattus norvegicus, UniProt P22756). Description: biochemical.
Description: Displacement of [3H]SYM2081 from recombinant rat GluK1(Q)1b receptor expressed in sf9 cells incubated for 1 to 2 hrs by liquid scintillation counting method
`NC(Cc1cc(Cl)c(Cl)c(-c2ccc3c(c2)OCCO3)c1)C(=O)O` (racemic): the pKi was less than 4.30.

`N[C@H](Cc1cc(Cl)c(Cl)c(-c2cncc(O)c2)c1)C(=O)O`: the pKi is less than 4.00.

`NC(Cc1cc(Cl)c(Cl)c(-c2cc(O)cc(O)c2)c1)C(=O)O` (racemic) showed a negative logarithm of the Ki (pKi) of less than 4.30.

`NC(Cc1cc(Cl)c(Cl)c(-c2cccc(CO)c2)c1)C(=O)O` (racemic) had a pKi of less than 4.30.

`NC(Cc1cc(Cl)c(Cl)c(-c2ccc(O)nc2)c1)C(=O)O` (racemic): the pKi is less than 4.30.

Turning to `NC(Cc1cc(Cl)c(Cl)c(-c2ccc(O)c(O)c2)c1)C(=O)O` (stereo not given), the negative logarithm of the Ki (pKi) is less than 4.30.

Molecule `COc1cccc(-c2cc(CC(N)C(=O)O)cc(Cl)c2Cl)c1` (racemic) showed a pKi of less than 4.30.

Molecule `NC(Cc1cc(Cl)c(Cl)c(-c2ccc(CO)cc2)c1)C(=O)O` (racemic) had a pKi of less than 4.30.

`NC(Cc1cc(Cl)c(Cl)c(-c2ccc(S(N)(=O)=O)cc2)c1)C(=O)O` (racemic) had a pKi of less than 4.30.

The molecule `N[C@@H](Cc1cc(Cl)c(Cl)c(-c2cncc(O)c2)c1)C(=O)O` showed a pKi of less than 4.00.

In turn, `NC(Cc1cc(Cl)c(Cl)c(-c2cncc(O)c2)c1)C(=O)O` (racemic) gave a negative-log Ki (pKi) of less than 4.30.

For the molecule `Nc1cccc(-c2cc(CC(N)C(=O)O)cc(Cl)c2Cl)c1` (racemic), the pKi was less than 4.30.

As for `NC(Cc1cc(Cl)c(Cl)c(-c2cccc(O)c2)c1)C(=O)O` (racemic), the pKi was 4.03.

For `NC(Cc1cc(Cl)c(Cl)c(-c2cccc(S(N)(=O)=O)c2)c1)C(=O)O` (racemic), the pKi is less than 4.30.

The values above are taken from ChEMBL document CHEMBL3758128, “Studies on Aryl-Substituted Phenylalanines: Synthesis, Activity, and Different Binding Modes at AMPA Receptors” (J Med Chem, 2016).
